The target in one data set is VEGFR II (KDR) (Homo sapiens, UniProt P35968). The data set is described as follows: Inhibition of the KDR kinase activity (33P-ATP / poly-(Glu4Tyr) phosphocellulose filter assay). The data set is classed as biochemical. Conditions: substrate poly-(Glu4Tyr), 10 minutes at room temperature. As to the method: • Stock solution A: 3 mmol of ATP in water, pH 7.0 (−70° C.) • Stock solution B: g-33P-ATP 1 mCi/100 μl • Stock solution C: poly-(Glu4 Tyr) 10 mg/ml in water Solution for Dilutions • Substrate solvent: 10 mmol of DTT, 10 mmol of manganese chloride, 100 mmol of magnesium chloride • Enzyme solution: 120 mmol of tris/HCl, pH 7.5, 10 μM of sodium vanadium oxide Sample Application 1 Inhibition of the KDR- and FLT-1 Kinase Activity in the Presence of the Compounds According to the Invention
VEGFR II (KDR), sequence (P35968 20-1356, species assumed): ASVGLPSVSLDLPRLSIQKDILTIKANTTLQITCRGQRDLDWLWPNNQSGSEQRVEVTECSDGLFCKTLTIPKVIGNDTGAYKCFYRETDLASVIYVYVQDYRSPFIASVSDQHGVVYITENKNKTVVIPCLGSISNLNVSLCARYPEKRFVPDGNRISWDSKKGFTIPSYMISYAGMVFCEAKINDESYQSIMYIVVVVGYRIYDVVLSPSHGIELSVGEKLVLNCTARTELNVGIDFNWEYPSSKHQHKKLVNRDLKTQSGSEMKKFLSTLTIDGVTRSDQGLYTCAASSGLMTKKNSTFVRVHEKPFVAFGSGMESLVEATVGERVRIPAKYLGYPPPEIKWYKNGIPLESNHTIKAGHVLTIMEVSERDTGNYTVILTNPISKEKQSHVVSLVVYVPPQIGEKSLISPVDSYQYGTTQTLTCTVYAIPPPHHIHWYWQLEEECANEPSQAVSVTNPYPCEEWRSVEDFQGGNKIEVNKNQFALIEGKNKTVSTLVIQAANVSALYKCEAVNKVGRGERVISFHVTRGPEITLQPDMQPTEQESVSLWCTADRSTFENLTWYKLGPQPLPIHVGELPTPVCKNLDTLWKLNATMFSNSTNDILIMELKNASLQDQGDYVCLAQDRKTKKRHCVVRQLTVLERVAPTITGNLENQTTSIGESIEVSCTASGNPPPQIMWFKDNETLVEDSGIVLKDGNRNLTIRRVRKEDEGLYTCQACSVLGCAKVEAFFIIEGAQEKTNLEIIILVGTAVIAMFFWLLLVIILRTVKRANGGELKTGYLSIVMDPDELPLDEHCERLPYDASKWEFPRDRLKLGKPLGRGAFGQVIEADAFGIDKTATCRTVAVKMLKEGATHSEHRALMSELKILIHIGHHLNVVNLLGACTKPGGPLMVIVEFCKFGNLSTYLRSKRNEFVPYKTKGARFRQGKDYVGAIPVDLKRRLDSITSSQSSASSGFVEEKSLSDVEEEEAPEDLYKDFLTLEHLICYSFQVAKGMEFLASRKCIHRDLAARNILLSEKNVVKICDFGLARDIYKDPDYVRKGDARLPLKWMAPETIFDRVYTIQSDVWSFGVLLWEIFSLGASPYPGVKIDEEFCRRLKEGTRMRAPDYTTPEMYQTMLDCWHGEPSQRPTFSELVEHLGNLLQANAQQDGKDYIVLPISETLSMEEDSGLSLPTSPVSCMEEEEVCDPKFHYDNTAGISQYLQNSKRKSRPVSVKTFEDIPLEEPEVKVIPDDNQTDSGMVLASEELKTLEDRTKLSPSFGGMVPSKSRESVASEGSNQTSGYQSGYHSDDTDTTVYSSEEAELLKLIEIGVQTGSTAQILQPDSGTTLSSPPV
In a microtiter plate (without protein binding) that tapers to a point, 10 μl of substrate mix (10 μl of volume of ATP stock solution A+25 μCi of g-33P-ATP (about 2.5 μl of stock solution B)+30 μl of poly-(Glu4Tyr) stock solution C+1.21 ml of substrate solvent), 10 μl of inhibitor solution (substances corresponding to the dilutions, 3% DMSO in substrate solvent as a control) and 10 μl of enzyme solution (11.25 μg of enzyme stock solution (KDR or FLT-1 kinase) are added at 4° C. in 1.25 ml of enzyme solution (dilute). It is thoroughly mixed and incubated for 10 minutes at room temperature. Then, 10 μl of stop solution (250 mmol of EDTA, pH 7.0) is added, mixed, and 10 μl of the solution is transferred to a P 81 phosphocellulose filter. Then, it is washed several times in 0.1 M phosphoric acid. The filter paper is dried, coated with Meltilex and measured in a microbeta counter. […]

The molecule `O=C(Nc1cc2ccccc2cn1)c1ccccc1NCC1CCOCC1` [Example 1.1] came in with a melting point of 140.4 °C. Further, inhibition on VEGFR II (KDR) was half-maximal at 50 nM (IC50).

As for `O=C1CCC(CNc2ccccc2C(=O)Nc2cc3ccccc3cn2)CC1` [Example 2.0], the IC50 against VEGFR II (KDR) was 20 nM.

As usually defined, the IC50 is the concentration needed to halve the response being measured. The melting point is the temperature, or range, at which the solid turns liquid.
